Assay [1] deals with T1, c-Met (baculovirus expressed human c-Met kinase domain P948-S1343) (Homo sapiens, UniProt P08581).
T1 construct: human c-Met kinase domain P948-S1343; host or cells: baculovirus expression
Kind of assay: c-Met Luciferase-Coupled Chemiluminescent Kinase assay (LCCA).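 Further: kinase activity read as percent ATP left after reaction, by luciferase-luciferin chemiluminescence, with 1 µM ATP and 1 µM poly-EY substrate, 2 h at ambient temperature, 10-point dose-response.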 Format: biochemical.

For assay [2], the target named is T2, KDR (baculovirus expressed human KDR kinase domain D807-V1356) (Homo sapiens, UniProt P35968).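 Further: Luciferase-coupled chemiluminescent kinase assay, activity read as percent ATP left after 4 h reaction at ambient temperature, ATP near KM, 10-point dose-response in 384-well plates.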
T2 construct: human KDR kinase domain D807-V1356; host or cells: baculovirus expression
T2 sequence (P35968 807-1356): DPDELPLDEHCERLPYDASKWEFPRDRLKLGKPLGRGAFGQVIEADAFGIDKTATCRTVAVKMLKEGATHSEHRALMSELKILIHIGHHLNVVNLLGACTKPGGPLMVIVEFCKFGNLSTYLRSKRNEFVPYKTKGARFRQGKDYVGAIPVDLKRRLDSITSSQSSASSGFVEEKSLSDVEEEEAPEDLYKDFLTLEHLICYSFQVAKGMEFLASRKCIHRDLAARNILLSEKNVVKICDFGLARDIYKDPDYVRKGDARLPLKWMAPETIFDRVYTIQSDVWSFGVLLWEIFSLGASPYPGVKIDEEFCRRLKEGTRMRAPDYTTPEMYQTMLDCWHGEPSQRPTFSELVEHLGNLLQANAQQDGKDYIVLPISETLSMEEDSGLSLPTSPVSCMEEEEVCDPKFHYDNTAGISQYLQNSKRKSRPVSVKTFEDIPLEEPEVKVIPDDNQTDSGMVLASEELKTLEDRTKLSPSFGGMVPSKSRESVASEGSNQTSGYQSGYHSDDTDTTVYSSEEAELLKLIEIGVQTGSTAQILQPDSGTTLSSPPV
The assay is described as follows: biochemical.

Setting [3] is: Table 4, inhibition as IC50 class.

pIC50: −log10 of the molar value. Read-outs that look alike come from different tables or passages of the source.

T1 sequence (P08581 1011-1343 limits assumed): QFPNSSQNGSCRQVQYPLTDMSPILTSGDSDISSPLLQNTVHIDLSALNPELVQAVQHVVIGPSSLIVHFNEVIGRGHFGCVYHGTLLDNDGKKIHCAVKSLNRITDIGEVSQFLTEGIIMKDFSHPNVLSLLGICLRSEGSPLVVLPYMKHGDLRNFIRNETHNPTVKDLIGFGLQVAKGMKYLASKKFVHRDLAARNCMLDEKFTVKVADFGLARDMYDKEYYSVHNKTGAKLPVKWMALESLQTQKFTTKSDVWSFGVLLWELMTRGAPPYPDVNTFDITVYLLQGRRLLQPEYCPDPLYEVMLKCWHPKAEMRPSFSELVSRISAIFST

On to `COc1cc2nccc(Oc3ccc(NC(=O)CN(C)CCc4cccc(C(F)(F)F)c4)cc3F)c2cc1OC` [Entry 100], for which the pIC50 in assay [1] is 5.30 to 6.30.

`COc1cc2nccc(Oc3ccc(N(Cc4ccccc4)S(=O)(=O)NCc4ccccc4)cc3F)c2cc1OC` [Entry 66] had a negative-log IC50 (pIC50) in assay [1] of 5.30 to 6.30.

`COc1cc2nccc(Oc3cc4sc(NCc5cccc(C(F)(F)F)c5)nc4cc3F)c2cc1OC` [Entry 85]: the negative-log IC50 (pIC50) in assay [1] was 5.30 to 6.30.

For `COc1cc2nccc(Oc3ncc(NC(=O)CC(=O)N(C)c4ccc(F)cc4)cc3Cl)c2cc1OC` [Example 253, N′-(6-{[6,7-bis(methyloxy)quinolin-4-yl]oxy}-5-chloropyridin-3-yl)-N-(4-fluorophenyl)-N-methylpropanediamide], the pIC50 in assay [1] (setting [3]) was 6.30 to 7.30; in assay [2] (setting [3]), 5.30 to 6.30.

`COc1cc2nccc(Oc3cc4sc(NC(=O)CCc5ccccc5)nc4cc3F)c2cc1OC` [Entry 53] showed a negative-log IC50 (pIC50) in assay [1] of 5.30 to 6.30.

Regarding `COc1cc2nccc(Oc3ccc(NC(=O)C4(C(=O)Nc5cccc(CN6CCCC6)c5)CC4)cc3)c2cc1OC` [Example 401, N-(4-{[6,7-bis(methyloxy)quinolin-4-yl]oxy}phenyl)-N′-[3-(pyrrolidin-1-ylmethyl)phenyl]cyclopropane-1,1-dicarboxamide], the pIC50 in assay [1] and in assay [2] was more than 7.30 each time.

Regarding `COc1cc2nccc(Oc3ncc(NC(=O)CC(=O)Nc4cccc(C(F)(F)F)c4)cc3Cl)c2cc1OC` [Entry 87], in assay [1], the pIC50 is 5.30 to 6.30.

As to `CCO/N=C(\C)C(=O)Nc1ccc(Oc2ccnc3cc(OC)c(OC)cc23)cc1` [Example 109, (2E)-N-(4-{[6,7-bis(methyloxy)quinolin-4-yl]oxy}phenyl)-2-[(ethyloxy)imino] propanamide], the pIC50 is 6.30 to 7.30 in assay [1] and more than 7.30 in assay [2].

`COc1cc2nccc(Oc3ccc(NC(=O)C(=O)N[C@H]4CCc5ccccc5C4)cc3F)c2cc1OC` [Entry 62] had a pIC50 in assay [1] of 5.30 to 6.30.

On to `COc1cc2nccc(Oc3ccc(NC(=O)/C(C)=N/OCc4ccccc4)cc3)c2cc1OC` [Example 110, (2E)-N-(4-{[6,7-bis(methyloxy)quinolin-4-yl]oxy}phenyl)-2-{[(phenylmethyl)oxy]imino} propanamide], for which the negative logarithm of the IC50 (pIC50) in assay [1] and in assay [2] was 6.30 to 7.30 throughout.

Consider `COc1cc2c(Oc3ccc(NC(=O)[C@]4(C(=O)Nc5ccc(F)cc5)C[C@H]4C)cc3F)ncnc2cc1OCCCN1CCOCC1` [Example 347, (1R,2R)-N-[3-fluoro-4-({6-(methyloxy)-7-[(3-morpholin-4-ylpropyl)oxy]quinazolin-4-yl}oxy)phenyl]-N′-(4-fluorophenyl)-2-methylcyclopropane-1,1-dicarboxamide], for which the negative-log IC50 (pIC50) in assay [1] and in assay [2] was more than 7.30 in each case.

As for `COc1cc2nccc(Oc3ncc(NC(=O)C(=O)NCCc4ccccc4)cc3Cl)c2cc1OC` [Entry 69], in assay [1], the pIC50 was 5.30 to 6.30.

Consider `COc1cc2nccc(Oc3ccc(S(=O)(=O)N(C)CCCc4ccccc4)cc3F)c2cc1OC` [Entry 25], for which the pIC50 in assay [1] was 5.30 to 6.30.

As to `COc1cc2nccc(Oc3ncc(NC(=O)CC(=O)Nc4cccc(F)c4)cc3Cl)c2cc1OC` [Example 290, N-(6-{[6,7-bis(methyloxy)quinolin-4-yl]oxy}-5-chloropyridin-3-yl)-N′-(3-fluorophenyl)propanediamide], the pIC50 in assay [1] was 6.30 to 7.30; in assay [2], 5.30 to 6.30.

In assay [1], `COc1cc2nccc(Oc3cc4sc(N(C)CCc5ccccc5)nc4cc3F)c2cc1OC` [Entry 83] gave a negative logarithm of the IC50 (pIC50) of 5.30 to 6.30.

As for “N-{3-fluoro-4-[(7-(methyloxy)-6- {[(1-methylpiperidin-4- yl)methyl]oxy}quinazolin-4- yl)oxy]phenyl}-N′-(4- fluorophenyl)cyclopropane-1,1- dicarboxamide [Entry 31]”, the pIC50 in assay [1] was 5.30 to 6.30.

Consider `CNc1cc(Oc2ccc(NC(=O)C3(C(=O)Nc4ccc(F)cc4)CC3)cc2F)c2cc(OC)c(OC)cc2n1` [Example 341, N-(3-fluoro-4-{[2-(methylamino)-6,7-bis(methyloxy)quinolin-4-yl]oxy}phenyl)-N′-(4-fluorophenyl)cyclopropane-1,1-dicarboxamide], for which the pIC50 in assay [1] and in assay [2] was 5.30 to 6.30 throughout.

`COc1cc2nccc(Oc3ccc(N4CC(Cc5ccccc5)NC4=O)cc3)c2cc1OC` (centres unmarked) [Example 113, 1-(4-{[6,7-bis(methyloxy)quinolin-4-yl]oxy}phenyl)-4-(phenylmethyl)imidazolidin-2-one]: the pIC50 in assay [1] and in assay [2] was 5.30 to 6.30 each time.

Consider `COc1cc2nccc(Oc3ccc(NC(=O)[C@H](CC(C)C)NCc4ccccc4)cc3)c2cc1OC` [Example 119, N1-(4-{[6,7-bis(methyloxy)quinolin-4-yl]oxy}phenyl)-N2-(phenylmethyl)leucinamide], for which the negative logarithm of the IC50 (pIC50) in assay [1] and in assay [2] was 5.30 to 6.30 throughout.

Regarding `COc1cc2nccc(Oc3ccc(NC(=O)C4(C(=O)Nc5cccc(CN6CCCCC6)c5)CC4)cc3)c2cc1OC` [Example 400, N-(4-{[6,7-bis(methyloxy)quinolin-4-yl]oxy}phenyl)-N′-[3-(piperidin-1-ylmethyl)phenyl]cyclopropane-1,1-dicarboxamide], the results for the pIC50 in assay [1] and in assay [2] were 6.30 to 7.30 and more than 7.30, respectively.

Consider `COc1cc2nccc(Oc3ncc(NC(=O)CNCc4ccccc4)cc3Cl)c2cc1OC` [Entry 93], for which the negative logarithm of the IC50 (pIC50) in assay [1] was 5.30 to 6.30.

As to `COc1cc2c(Oc3ccc(NC(=O)C(=O)NCCc4ccccc4)cc3F)ccnc2cc1OCC1CNC1` [Example 249, N-(4-{[7-[(azetidin-3-ylmethyl)oxy]-6-(methyloxy)quinolin-4-yl]oxy}-3-fluorophenyl)-N′-(2-phenylethyl)ethanediamide], the negative-log IC50 (pIC50) in assay [1] (setting [3]) and in assay [2] (setting [3]) was more than 7.30 each time.

On to `COc1cc2nc(C)nc(Oc3ccc(NC(=O)C4(C(=O)Nc5ccc(F)cc5)CC4)cc3)c2cc1OC` [Example 339, N-(4-fluorophenyl)-N′-(4-{[2-methyl-6,7-bis(methyloxy)quinazolin-4-yl]oxy}phenyl)cyclopropane-1,1-dicarboxamide], for which the negative-log IC50 (pIC50) in assay [1] and in assay [2] was 5.30 to 6.30 throughout.

Molecule `COc1cc2nccc(Oc3ncc(NC(=O)CC(=O)Cc4ccccc4)cc3Cl)c2cc1OC` [Entry 79] showed a pIC50 in assay [1] of 5.30 to 6.30.

In assay [1], `COc1cc2nccc(Oc3ccc(N4CCN(C(=O)Cc5ccccc5)C4=O)cc3F)c2cc1OC` [Entry 6] gave a negative-log IC50 (pIC50) of 6.30 to 7.30.

The molecule `COc1cc2nccc(Oc3cc4sc(NCCOc5ccccc5)nc4cc3F)c2cc1OC` [Entry 81] showed a pIC50 in assay [1] of 6.30 to 7.30.

With `COc1cc2nc(N)cc(Oc3ccc(NC(=O)C4(C(=O)Nc5ccc(F)cc5)CC4)cc3F)c2cc1OC` [Example 340, N-(4-{[2-amino-6,7-bis(methyloxy)quinolin-4-yl]oxy}-3-fluorophenyl)-N′-(4-fluorophenyl)cyclopropane-1,1-dicarboxamide], the pIC50 in assay [1] and in assay [2] was 5.30 to 6.30 each time.

For `COc1cc2nccc(Oc3cc4sc(NCCc5cccc(C(F)(F)F)c5)nc4cc3F)c2cc1OC` [Entry 86], the negative-log IC50 (pIC50) in assay [1] is 5.30 to 6.30.

Molecule `COc1cc2nccc(Oc3ncc(NC(=O)CC(=O)Nc4ccc(Cl)cc4)cc3Cl)c2cc1OC` [Entry 107] showed a pIC50 in assay [1] of 6.30 to 7.30.

Regarding `COc1cc2nccc(Oc3ncc(NC(=O)CN(Cc4ccccc4)C(=O)OC(C)(C)C)cc3Cl)c2cc1OC` [Entry 92], the pIC50 in assay [1] is 5.30 to 6.30.

With `COc1cc2nccc(Oc3cc4sc(NCCN5CCCC5)nc4cc3F)c2cc1OC` [Entry 84], in assay [1], the pIC50 is 5.30 to 6.30.

In general, pIC50 refers to −log10 of the IC50, conventionally taken in molar units. A low value points to a high IC50.

These data come from patent publication US8476298B2 (Exelixis, Inc., priority 2003, dated 2013).
